Read-outs that look alike come from different tables or passages of the source.
Columns and labels:
[1] = test system: root-knot nematode; assay: Residual Root-Knot Nematicidal Activity; format: in vivo, Meloidogyne incognita; conditions: read-out: Percent Control
Experimental: (§1) Compounds of this invention were tested as follows for nematicidal and anthelmintic activity as dust formulations (initial and residual activity) and as acetone/water formulations (systemic activity). The formulations are described above.
The ability of nematicidal compounds of the invention to control root-knot nematode infestations in soil over a period of time after treatment was evaluated. Dust formulations of test compound (5%) were incorporated into soil samples at test compound rates of 5 and 10 ppm. Subsequently, the treated soil samples were inoculated with nematode inoculum at weekly intervals, and Knot Index and Percent Control determined on seedlings planted in the soil samples. Specifically, soil treated with test compound was placed in 7.6 cm diameter fiber pots and stored in a greenhouse. At one, two and four weeks post-treatment, the appropriate number of pots was infested with root-knot nematode eggs and larvae. A cucumber or tomato seedling was planted in each pot and evaluated approximately two weeks after the soil infestation to obtain the test results reported in Tables 3 and 3a appended.

[2] = test system: root-knot nematode; assay: Soil Mobility against root-knot nematode; format: in vivo, Meloidogyne incognita; conditions: 336 h; for pest or weed control at 0.313 ppm: Table 7, 0.313 ppm; for pest or weed control at 0.625 ppm: Table 7, 0.625 ppm; for pest or weed control at 1.25 ppm: Table 7, 1.25 ppm; for pest or weed control at 2.5 ppm: Table 7, 2.5 ppm; for pest or weed control at 10 ppm: Table 7, 10 ppm
How it was run: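 Soil mobility of the nematicidal test material was evaluated by placing treated, nematode-infested soil in 8 cm plastic pots stacked above two or more pots of untreated infested soil, each containing a 10 cm^3 sand layer and filter paper discs. Fifteen cm of water was dripped through, pots drained 16-18 hours, then were planted with cucumber or tomato seedlings and scored for Percent Control.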

[3] = test system: lesion nematode; assay: Lesion Nematode Test; format: in vivo; conditions: Table 5, read-out: Percent Control; for pest or weed control at 5 ppm: rate 5 ppm; for pest or weed control at 2.5 ppm: rate 2.5 ppm
How it was run: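 Run as the stunt nematode test but on pea seedlings; compounds applied as dust formulations (initial and residual activity) or acetone/water formulations (systemic activity), with untreated samples as reference. Percent control derived by formula.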

[4] = test system: cyst nematode; assay: Cyst Nematode Test; format: in vivo; conditions: read-out: Percent Control; for pest or weed control at 5 ppm: Table 6, rate 5 ppm
Experimental: as §1
The procedures was substantially the same as described in the stunt nematode test except soybean seedlings were used. "Percent Control" (Table 6 appended) is as defined in the stunt nematode test results.

[5] = test system: root-knot nematode (Meloidogyne incognita); assay: Initial Root-Knot Nematicidal Activity; format: in vivo; conditions: 336 h, read-out: Percent Control; for pest or weed control at 0.313 ppm: Table 2, Application Rate 0.313 ppm; for pest or weed control at 0.625 ppm: Table 2, Application Rate 0.625 ppm; for pest or weed control at 1.25 ppm: Table 2, Application Rate 1.25 ppm; for pest or weed control at 5 ppm: Table 2, Application Rate 5.0 ppm; for pest or weed control at 10 ppm: Table 2, Application Rate 10.0 ppm
How it was run: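 Compound incorporated into Meloidogyne incognita-infested soil at 10 ppm to 0.078 ppm, then planted with tomato or cucumber seedlings. Root galling scored two weeks after planting as a knot index and converted to percent control, given as averages.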

[6] = test system: stunt nematode; assay: Stunt Nematode Test; format: in vivo; conditions: 672 h, Table 4, read-out: Percent Control; for pest or weed control at 5 ppm: rate 5 ppm
Experimental: as §1
The procedure was substantially the same as in the […] seedling, with subsequent inoculation of the soil with combined larvae and adult stunt nematodes. The samples were evaulated approximately four weeks after infestation. […] "Percent control" means the difference between average population counts between untreated and treated samples, divided by average population count of untreated sample, multiplied by 100.

[7] = test system: Caenorhabditis elegans; assay: C. Elegans Nematode Screening Test and Evaluation (in-vitro); conditions: Caenorhabditis elegans
How it was run: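 Worms (10-15 per well) in buffer with E. coli food, ampicillin and mycostatin; compound added in DMSO, 2-3 replicates per rate. Incubated 5-6 days at 20° C. Population development scored against untreated wells, noting effects such as reduced egg hatch or molting disruption.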

[8] = 168 h, Table 3, inoculation 1 week after treatment
[9] = 336 h, Table 3, inoculation 2 weeks after treatment
[10] = 672 h, Table 3, inoculation 4 weeks after treatment
[11] = Table 7, 30 ppm, Bottom container, read-out: Percent Control
[12] = Table 7, 30 ppm, Middle container, read-out: Percent Control
[13] = Bottom container, read-out: Percent Control
[14] = Middle container, read-out: Percent Control
[15] = Top container, read-out: Percent Control
[16] = Table 7, 30 ppm, Top container, read-out: Percent Control
[17] = read-out: Percent Control, Table 7, 30 ppm, Middle container
[18] = Table 2, Application Rate 2.5 ppm

O=C(CSCCC(F)=C(F)F)OCCC(F)=C(F)F [Compound 18, (3,4,4-trifluoro-3-butenyl) (3,4,4-trifluoro-3-butenylthio)acetate]
pest or weed control at 10 ppm [1, 8]: 0%
pest or weed control at 10 ppm [1, 9]: 0%
pest or weed control at 10 ppm [1, 10]: 0%
pest or weed control at 30 ppm [2, 11]: 25%
pest or weed control at 30 ppm [2, 12]: 25%
pest or weed control at 30 ppm ([2]; read-out: Percent Control, Table 7, 30 ppm, Top container): 33%
pest or weed control at 5 ppm [3]: 0%
pest or weed control at 5 ppm [4]: 8%
pest or weed control at 0.313 ppm [5]: 0%
pest or weed control at 0.625 ppm [5]: 19%
pest or weed control at 1.25 ppm [5]: 38%
pest or weed control at 5 ppm [5]: 99%
pest or weed control at 10 ppm [5]: 100%

FC(F)=C(F)CCSC1=NCCS1 [Compound 1, 2-(3,4,4-trifluoro-3-butenylthio)-4,5-dihydrothiazole]
pest or weed control at 5 ppm [1, 8]: 99%
pest or weed control at 10 ppm [1, 8]: 98%
pest or weed control at 5 ppm [1, 9]: 63%
pest or weed control at 5 ppm [1, 10]: 25%
pest or weed control at 0.313 ppm [2, 13]: 25%
pest or weed control at 0.313 ppm [2, 14]: 75%
pest or weed control at 0.313 ppm [2, 15]: 77%
pest or weed control at 0.625 ppm [2, 13]: 77%
pest or weed control at 0.625 ppm [2, 14]: 98%
pest or weed control at 0.625 ppm [2, 15]: 97%
pest or weed control at 1.25 ppm [2, 13]: 96%
pest or weed control at 1.25 ppm [2, 14]: 99%
pest or weed control at 1.25 ppm [2, 15]: 100%
pest or weed control at 2.5 ppm [2, 13]: 100%
pest or weed control at 2.5 ppm [2, 14]: 100%
pest or weed control at 2.5 ppm [2, 15]: 100%
pest or weed control at 5 ppm ([2]; Table 7, 5 ppm, Bottom container, read-out: Percent Control): 99%
pest or weed control at 5 ppm ([2]; Table 7, 5 ppm, Middle container, read-out: Percent Control): 98%
pest or weed control at 5 ppm ([2]; Table 7, 5 ppm, Top container, read-out: Percent Control): 100%
pest or weed control at 10 ppm ([2]; container 1 (Top), read-out: Percent Control): 100%
pest or weed control at 10 ppm ([2]; container 2, read-out: Percent Control): 100%
pest or weed control at 10 ppm ([2]; container 3, read-out: Percent Control): 100%
pest or weed control at 10 ppm ([2]; container 4, read-out: Percent Control): 99%
pest or weed control at 10 ppm ([2]; container 5, read-out: Percent Control): 97%
pest or weed control at 10 ppm ([2]; container 6 (Bottom), read-out: Percent Control): 42%
pest or weed control at 30 ppm [2, 11]: 85%
pest or weed control at 30 ppm [2, 16]: 97%
pest or weed control at 30 ppm [2, 17]: 95%
pest or weed control at 2.5 ppm [3]: 0%
pest or weed control at 5 ppm [4]: 94%
pest or weed control at 5 ppm ([4]; whole cysts rather than homogenized cysts): 79%
pest or weed control at 0.078 ppm ([5]; Table 2, Application Rate 0.078 ppm): 56%
pest or weed control at 0.313 ppm [5]: 99%
pest or weed control at 0.625 ppm [5]: 100%
pest or weed control at 1.25 ppm [5]: 99%
pest or weed control at 2.5 ppm [5, 18]: 99%
pest or weed control at 5 ppm [5]: 99%
pest or weed control at 10 ppm [5]: 100%
pest or weed control at 0.156 ppm [5]: 95%
pest or weed control at 5 ppm [6]: 30%
pest or weed control at 10 ppm ([6]; rate 10 ppm): 61%

CSc1nnc(SCCC(F)=C(F)F)s1 [Compound 2, 2-methylthio-5-(3,4,4-trifluoro-3-butenylthio)-1,3,4-thiadiazole]
pest or weed control at 5 ppm [1, 8]: 98%
pest or weed control at 10 ppm [1, 8]: 77%
pest or weed control at 5 ppm [1, 9]: 38%
pest or weed control at 10 ppm [1, 9]: 56%
pest or weed control at 5 ppm [1, 10]: 42%
pest or weed control at 10 ppm [1, 10]: 69%
pest or weed control at 30 ppm [2, 11]: 25%
pest or weed control at 30 ppm [2, 16]: 42%
pest or weed control at 30 ppm [2, 17]: 33%
pest or weed control at 5 ppm [3]: 0%
pest or weed control at 5 ppm [4]: 70%
pest or weed control at 0.313 ppm [5]: 38%
pest or weed control at 0.625 ppm [5]: 84%
pest or weed control at 1.25 ppm [5]: 86%
pest or weed control at 2.5 ppm [5, 18]: 96%
pest or weed control at 5 ppm [5]: 96%
pest or weed control at 10 ppm [5]: 100%
pest or weed control at 2.5 ppm [5]: 95%
pest or weed control at 5 ppm [6]: 72%

O=C(OCCC(F)=C(F)F)c1ccc([N+](=O)[O-])o1 [Compound 21, (3,4,4-trifluoro-3-butenyl) 5-nitro-2-furancarboxylate]
pest or weed control at 5 ppm [1, 8]: 13%
pest or weed control at 5 ppm [1, 9]: 8%
pest or weed control at 5 ppm [1, 10]: 0%
pest or weed control at 30 ppm [2, 11]: 99%
pest or weed control at 30 ppm [2, 12]: 96%
pest or weed control at 30 ppm [2, 16]: 100%
pest or weed control at 2.5 ppm [3]: 54%
pest or weed control at 2.5 ppm [4]: 33%
pest or weed control at 0.313 ppm [5]: 0%
pest or weed control at 0.625 ppm [5]: 8%
pest or weed control at 1.25 ppm [5]: 31%
pest or weed control at 2.5 ppm [5, 18]: 64%

FC(F)=C(F)CCSc1nsc(SCCC(F)=C(F)F)n1 [Compound 25, 3,5-di(3,4,4-trifluoro-3-butenylthio)-1,2,4-thiadiazole]
inhibition at 5 ppm ([7]; Table 9 screen, 5 ppm, read-out: Percent Inhibition of Reproduction): 100%
mortality at 5 ppm ([7]; Table 9 screen, 5 ppm, read-out: Percent Mortality): 75%
mortality at 5 ppm ([7]; Table 10 evaluation, 5 ppm, read-out: Percent Mortality): 100%
inhibition at 1.25 ppm ([7]; Table 10 evaluation, 1.25 ppm, read-out: Percent Inhibition of Reproduction): 17%
mortality at 1.25 ppm ([7]; Table 10 evaluation, 1.25 ppm, read-out: Percent Mortality): 0%
inhibition at 2.5 ppm ([7]; Table 10 evaluation, 2.5 ppm, read-out: Percent Inhibition of Reproduction): 58%
mortality at 2.5 ppm ([7]; Table 10 evaluation, 2.5 ppm, read-out: Percent Mortality): 0%
pest or weed control at 5 ppm ([1]; 168 h, Table 3a, 5% dust, inoculation 1 week post-treatment): 100%
pest or weed control at 5 ppm ([1]; 336 h, Table 3a, 5% dust, inoculation 2 weeks post-treatment): 97%
pest or weed control at 5 ppm ([1]; 672 h, Table 3a, 5% dust, inoculation 4 weeks post-treatment): 98%
pest or weed control at 5 ppm ([2]; Table 7a, 5% dust, 5 ppm, BOTTOM container, read-out: Percent Control): 8%
pest or weed control at 5 ppm ([2]; Table 7a, 5% dust, 5 ppm, MIDDLE container, read-out: Percent Control): 69%
pest or weed control at 5 ppm ([2]; Table 7a, 5% dust, 5 ppm, TOP container, read-out: Percent Control): 100%
pest or weed control at 2.5 ppm [3]: 77%
pest or weed control at 5 ppm [4]: 83%
pest or weed control at 0.312 ppm ([5]; Table 2, Application Rate 0.312 ppm): 78%
pest or weed control at 0.625 ppm [5]: 97%
pest or weed control at 1.25 ppm [5]: 97%
pest or weed control at 2.5 ppm [5, 18]: 99%
